Patent publication US10280183B2, “Therapeutic agent for treating tumors” (THE RESEARCH FOUNDATION FOR THE STATE UNIVERSITY OF NEW YORK, priority 2014, dated 2019)
Like-named read-outs stand apart in the source and are kept apart here.

Experiments:
[1] = system: L1210FR murine lymphocytic leukemia cell line (BR+); experiment: In vitro cytotoxicity, standard MTT assay, L1210FR cells; format: cell-based; conditions: Mus musculus
Protocol: (§1) Cell Culture. All cell lines were obtained from ATCC unless otherwise noted. Cells were cultured in RPMI-1640 cell culture medium (Gibco) or DMEM (Gibco), both supplemented with 5% (v/v) heat-inactivated fetal bovine serum (FBS), 5% (v/v) NuSerum, and 1% (v/v) penicillin and streptomycin (PenStrep) at 37° C. in a humidified atmosphere with 5% CO2. MX-1 and ID8 (obtained from University of Kansas Medical Center) cells were cultured as monolayers on 100 mm tissue culture dishes in supplemented RPMI-1640. L1210 and L1210FR (a gift from Dr. Gregory Russell-Jones, Access Pharmaceuticals Pty Ltd., Australia) were grown as a suspension in supplemented RPMI-1640, and WI-38 as a monolayer in supplemented DMEM. Cells were harvested, collected by centrifugation at 850 rpm for 5 min, and resuspended in fresh culture medium. Cell cultures were routinely divided by treatment with trypsin (TrypLE, Gibco) as needed every 2-4 days and collected by centrifugation at 850 rpm for 5 min, and resuspended in fresh cell culture medium, containing varying cell densities for subsequent biological experiments and analysis.
(§2) In Vitro Cytotoxicity Assays. […] Cells were harvested, collected, and resuspended in 100 μL cell culture medium at concentrations ranging from 0.5-1.5×10^4 cells per well in a 96-well plate. For adhesive cell types, cells were allowed to descend to the bottom of the wells overnight, and fresh medium was added to each well upon removal of the old medium.
(§3) For the MTT assay (Table 1 and the Assay 1 in Table 2) of paclitaxel, taxoid 3 and conjugates 1 and 15, cells were resuspended in 200 μL medium with 8,000 to 10,000 cells per well of a 96-well plate and incubated at 37° C. for 24 h before drug treatment. In DMSO stock solutions, each drug or conjugate was diluted to a series of concentrations in cell culture medium to prepare test solutions. After removing the old medium, these test solutions were added to the wells in the 96-well plate to give the final concentrations ranging from 0.5 to 5,000 nM (100 μL), and the cells were subsequently cultured at 37° C. for 48 h (Table 1) or 72 h (Table 2, Assay 1). For the leukemia cell lines, L1210 and L1210FR, cells were harvested, collected, and resuspended in the test solutions ranging from 0.5 to 5,000 nM (100 μL) at 0.5 to 0.8 ×10^4 cells per well in a 96-well plate and subsequently incubated at 37° C. for 48 h (Table 1) or 72 h (Table 2, Assay 1).
(§4) In the Assay 2 (Table 2), cells were incubated with 1 or 15 at 37° C. for 24 h, and the drug medium was removed. Then, treated cells were thoroughly washed with PBS, and GSH-OEt (6 equiv. to conjugate) in cell culture medium (200 μL) was added to the wells. These cells were incubated at 37° C. for an additional 48 h, i.e., the total incubation time was 72 h.
(§5) In the Assay 3 (Table 2), cells were incubated with 1 or 15 at 37° C. for 24 h, and GSH-OEt (6 equivalents) in cell culture medium (100 μL) was directly added to the wells. These cells were incubated at 37° C. for an additional 48 h, i.e. the total incubation time was also 72 h.
(§6) For all experiments, after removing the test medium, fresh solution of MTT in PBS (40 μL of 0.5 mg MTT/mL) was added to the wells, and the cells were incubated at 37° C. for 3 h. The MTT solution was then removed, and the resulting insoluble violet formazan crystals were dissolved in 0.1 N HCl in isopropanol with 10% Triton X-100 (40 μL) to give a violet solution. The spectrophotometric absorbance measurement of each well in the 96-well plate was run at 570 nm using a Labsystems Multiskan Ascent microplate reader. The IC50 values and their standard errors were calculated from the viability-concentration curve using Four Parameter Logistic Model of Sigmaplot. The concentration of DMSO per well was ≤1% in all cases. Each experiment was run in triplicate.

[2] = system: ID8 murine ovarian carcinoma cell line (BR+); experiment: In vitro cytotoxicity, standard MTT assay, ID8 cells; format: cell-based; conditions: Mus musculus, Ovarian carcinoma cell, read-out: Cytotoxicity IC50, ID8
Protocol: as §1, §2
as §3, with “After removing the old medium, these test solutions were added to the wells in the 96-well plate to give the final concentrations ranging from 0.5 to 5,000 nM (100 μL), and the cells were subsequently cultured at 37° C. for 48 h (Table 1) or 72 h (Table 2, Assay 1).” left out
as §6

[3] = system: L1210 murine lymphocytic leukemia cell line (BR−); experiment: In vitro cytotoxicity, standard MTT assay, L1210 cells; format: cell-based; conditions: Mus musculus, read-out: Cytotoxicity IC50, L1210
Protocol: as §1, §2, §3, §6

[4] = system: BR+ cancer cell lines (L1210FR, MX-1, ID8); experiment: MTT cytotoxicity summarised over BR+ cancer cell lines; format: cell-based
Protocol: as §2, §3, §4, §5, §6
Thus, the Assay 1 results provide the potency of conjugates in the same manner as that for the first assay summarized in Table 1, but for longer incubation time (48 h vs. 72 h). […] Accordingly, this assay may mimic the corresponding in vivo assay conditions, wherein non-internalized conjugates would be removed from the tumor, redistributed and eventually excreted. […] Thus, in principle, the results (IC50 values) in this assay should be very close to those for the control using taxoid 3 (entry 2).

[5] = In vitro cytotoxicity, standard MTT assay, WI38 cells; format: cell-based, human; conditions: human; for IC50 at 48 h: incubation at 37° C. for 48 h
Protocol: as §1, §2, §3, §4, §5, §6

[6] = system: MX-1 human breast carcinoma cell line (BR+); experiment: In vitro cytotoxicity, standard MTT assay, MX-1 cells; format: cell-based; conditions: Homo sapiens, Breast carcinoma cell
Protocol: as §1, §2, §3, §4, §5, §6

[7] = system: WI38 human lung fibroblast cell line (BR−); experiment: In vitro cytotoxicity, standard MTT assay, WI38 cells; format: cell-based
Protocol: as §1, §2, §3, §4, §5, §6

[8] = 48 h, read-out: Cytotoxicity IC50, L1210FR
[9] = 72 h, read-out: Cytotoxicity IC50, L1210FR, Assay 1
[10] = 72 h incubation, no GSH-OEt, read-out: Cytotoxicity IC50, WI38, Assay 1
[11] = 48 h, read-out: Cytotoxicity IC50, MX-1
[12] = 72 h, read-out: Cytotoxicity IC50, MX-1, Assay 1

CC(=O)O[C@@]12CO[C@@H]1C[C@H](O)[C@@]1(C)C(=O)[C@H](OC(=O)C3CC3)C3=C(C)[C@@H](OC(=O)[C@H](OC(=O)Cc4ccccc4SSC(C)CCC(=O)NNC(=O)CCCC[C@@H]4SC[C@@H]5NC(=O)N[C@@H]54)[C@H](C=C(C)C)NC(=O)OC(C)(C)C)C[C@@](O)([C@@H](OC(=O)c4ccccc4)[C@H]21)C3(C)C (stereo partly shown) [Conjugate 15, Biotin-(SS-Linker)-SB-T-1214]
IC50 [1, 8]: 13.4 ± 6.8 nM
IC50 [1, 9]: 12.3 ± 2.8 nM
IC50 ([1]; read-out: Cytotoxicity IC50, L1210FR, Assay 2): 5.15 ± 2.85 nM
IC50 ([1]; read-out: Cytotoxicity IC50, L1210FR, Assay 3): 2.92 ± 2.34 nM
IC50 ([2]; 48 h): 4.32 ± 1.58 nM
IC50 ([3]; L1210, 48 h): 481 ± 34 nM
IC50 ([4]; 24 h, PBS wash, GSH-OEt, additional 48 h, range over conjugates 1 and 15, read-out: IC50 range against BR+ cancer cells (MX-1, L1210FR), Assay 2): 3.85 to 6.6 nM
Cancer cell selectivity (BR-specificity), BR+ cancer cells vs BR− WI38 cells ([4]; Assay 2): two-orders of magnitude difference
IC50 ([4]; GSH-OEt added after 24 h without PBS washing, additional 48 h, range over conjugates 1 and 15, read-out: IC50 range against MX-1 and L1210FR, third assay (Assay 3)): 2.4 to 2.92 nM
IC50 at 72 h ([5]; 24 h incubation, PBS wash, then GSH-OEt (6 equiv.) and additional 48 h, read-out: Cytotoxicity IC50, WI38, Assay 2): 590 ± 164 nM
IC50 at 72 h ([5]; 24 h incubation, then GSH-OEt (6 equiv.) added without washing, additional 48 h, read-out: Cytotoxicity IC50, WI38, Assay 3): 11 ± 3.1 nM
IC50 at 72 h [5, 10]: 645 ± 97 nM
IC50 at 48 h [5]: 670 ± 89 nM
IC50 [6, 11]: 15.4 ± 4.2 nM
IC50 [6, 12]: 4.66 ± 0.87 nM
IC50 ([6]; read-out: Cytotoxicity IC50, MX-1, Assay 2): 3.85 ± 0.14 nM
IC50 ([6]; read-out: Cytotoxicity IC50, MX-1, Assay 3): 2.4 ± 0.18 nM

CC(=O)O[C@@]12CO[C@@H]1C[C@H](O)[C@@]1(C)C(=O)[C@H](OC(=O)C3CC3)C3=C(C)[C@@H](OC(=O)[C@H](O)[C@H](C=C(C)C)NC(=O)OC(C)(C)C)C[C@@](O)([C@@H](OC(=O)c4ccccc4)[C@H]21)C3(C)C [Taxoid 3, SB-T-1214, reference compound]
IC50 [1, 8]: 4.18 ± 1.8 nM
IC50 [1, 9]: 2.32 ± 1.41 nM
IC50 ([2]; 48 h): 0.17 ± 0.14 nM
IC50 ([3]; L1210, 48 h): 7.05 ± 1.38 nM
IC50 ([4]; 72 h incubation, read-out: IC50 range of free taxoid against MX-1 and L1210FR): 2.32 to 2.66 nM
IC50 at 72 h [5, 10]: 4.89 ± 2.24 nM
IC50 at 48 h [5]: 5.23 ± 0.27 nM
IC50 [6, 11]: 4.13 ± 2.59 nM
IC50 [6, 12]: 2.66 ± 0.16 nM

CC(=O)O[C@H]1C(=O)[C@@]2(C)[C@H]([C@H](OC(=O)c3ccccc3)[C@]3(O)C[C@H](OC(=O)[C@H](O)[C@@H](NC(=O)c4ccccc4)c4ccccc4)C(C)=C1C3(C)C)[C@]1(OC(C)=O)CO[C@@H]1C[C@@H]2O [paclitaxel, reference compound]
IC50 ([1]; 72 h incubation, no GSH-OEt, read-out: Cytotoxicity IC50, L1210FR, Assay 1): 35.6 ± 8.2 nM
IC50 ([1]; incubation at 37° C. for 48 h, read-out: Cytotoxicity IC50, L1210FR): 38.7 ± 17.7 nM
IC50 ([2]; incubation at 37° C. for 48 h): 14.4 ± 1.81 nM
IC50 ([3]; L1210, incubation at 37° C. for 48 h): 77.1 ± 12.8 nM
IC50 [7, 10]: 55.7 ± 9.54 nM
IC50 ([7]; incubation at 37° C. for 48 h, read-out: Cytotoxicity IC50, WI38): 61.4 ± 12.7 nM
IC50 ([6]; 72 h incubation, no GSH-OEt, read-out: Cytotoxicity IC50, MX-1, Assay 1): 4.07 ± 0.8 nM
IC50 ([6]; incubation at 37° C. for 48 h, read-out: Cytotoxicity IC50, MX-1): 7.23 ± 0.68 nM
